Molecules are shown by their SMILES. Counter-ions that a name gives are not always drawn.

These results are taken from ChEMBL document CHEMBL4665768, “Monacycliones G-K and ent-Gephyromycin A, Angucycline Derivatives from the Marine-Derived Streptomyces sp. HDN15129” (J Nat Prod, 2020).

The subject of one assay is HL-60. In words: Cytotoxicity against human HL-60 cells assessed as reduction in cell viability by MTT assay. It is filed as functional, cell-based.
A further assay has as its system Bel-7402. In words: Cytotoxicity against human Bel-7402 cells assessed as reduction in cell viability by SRB assay. It counts as functional, cell-based.
A further assay concerns SH-SY5Y. The assay can be described thus: Cytotoxicity against human SH-SY5Y cells assessed as reduction in cell viability by SRB assay. It counts as functional, cell-based.
A further assay concerns HCT-116. The assay can be described thus: Cytotoxicity against human HCT-116 cells assessed as reduction in cell viability by SRB assay. It is filed as functional, cell-based.
Another assay concerns ASPC1. The assay can be described thus: Cytotoxicity against human ASPC1 cells assessed as reduction in cell viability by SRB assay. It counts as functional, cell-based.
The next assay concerns U-87 MG. The assay can be described thus: Cytotoxicity against human U87 cells assessed as reduction in cell viability by SRB assay. It is filed as functional, cell-based, U-87MG ATCC.
In the next assay the test system is K562. The assay can be described thus: Cytotoxicity against human K562 cells assessed as reduction in cell viability by MTT assay. It counts as functional, cell-based.
In the next assay the test system is PC-3. The assay can be described thus: Cytotoxicity against human PC-3 cells assessed as reduction in cell viability by SRB assay. It is filed as functional, cell-based.

For `CN[C@H]1CC[C@H](c2ccc3c(c2O)C(=O)c2cc(SC)c4cc(C)cc(O)c4c2C3=O)O[C@H]1C`, the IC50 in the assay with HL-60 was 7.6 µM; in the assay on Bel-7402 it was above 10 µM; in the assay on SH-SY5Y, above 10 µM; with HCT-116, above 10 µM; in the assay with ASPC1, above 10 µM; in the assay on U-87 MG, above 10 µM. Also, the IC50 with K562 and in the assay with PC-3 was above 10 µM in each case.
With `CSc1cc2c(c3c1C[C@@](C)(O)CC3=O)C(=O)c1ccc([C@H]3CC[C@H](N(C)C)[C@H](C)O3)c(O)c1C2=O`, the IC50 with HL-60 was found to be 3.5 µM; in the assay on Bel-7402 it was 10 µM; in the assay with SH-SY5Y it was 4.3 µM; in the assay on HCT-116, 10 µM; with ASPC1 it was 7.1 µM; in the assay on U-87 MG, 7.9 µM. Further, the results for the IC50 in the assay with K562 and in the assay with PC-3 were 7.1 µM and 7.7 µM, respectively.
With `COc1cccc2c1C(=O)c1c(O)c3c(c(O)c1C2=O)C[C@@](O)(C(=O)CO)C[C@@H]3O[C@H]1C[C@H](N)[C@H](O)[C@H](C)O1` [DOXORUBICIN HYDROCHLORIDE], the IC50 with Bel-7402 is 0.3 µM; with SH-SY5Y, 0.5 µM; in the assay on ASPC1, 0.2 µM; in the assay with U-87 MG, 0.2 µM; with PC-3, 0.2 µM.
